Assay results reported in ChEMBL document CHEMBL1201862, “PubChem BioAssay data set” (2004).
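A five-concentration, 48-hour dose response in 96-well plates underlies each endpoint, interpolated linearly between surrounding concentrations. Here, GI50 denotes the concentration required for 50% inhibition of growth.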 Active and inactive are the calls of the source. No stated cut-off is given here; in the data, active = GI50 up to about 1.1 µM and inactive = higher.

What was measured:
Assay in all cases: NCI anticancer screen, dose series, 48 h
[1] = tested on: HOP-92
[2] = tested on: UACC-257
[3] = tested on: SNB-19
[4] = tested on: SK-OV-3
[5] = tested on: TK-10
[6] = tested on: SF-539
[7] = tested on: A549
[8] = tested on: NCI/ADR-RES
[9] = tested on: U-251
[10] = tested on: MDA-N
[11] = tested on: ACHN
[12] = tested on: UACC-62
[13] = tested on: M14
[14] = tested on: LOX IMVI
[15] = tested on: SK-MEL-5
[16] = tested on: HCC 2998
[17] = tested on: MCF7
[18] = tested on: OVCAR-4
[19] = tested on: MOLT-4
[20] = tested on: SK-MEL-2

Row | SMILES | GI50 [1] | GI50 [2] | GI50 [3] | GI50 [4] | GI50 [5] | GI50 [6] | GI50 [7] | GI50 [8] | GI50 [9] | GI50 [10] | GI50 [11] | GI50 [12] | GI50 [13] | GI50 [14] | GI50 [15] | GI50 [16] | GI50 [17] | GI50 [18] | GI50 [19] | GI50 [20]
1 | COc1cc(/C=C2/SC(c3ccccc3)N(c3cccc(Cl)c3)C2=O)cc(OC)c1OC (configuration not stated) | 23.6 µM (inactive) | 40.1 µM (inactive) | 27.9 µM (inactive) | 20.9 µM (inactive) | 33.7 µM (inactive) | 22.5 µM (inactive) | 54.5 µM (inactive) | 17.1 µM (inactive) | 27.6 µM (inactive) | 16.3 µM (inactive) | 19.3 µM (inactive) | 18.4 µM (inactive) | 19.8 µM (inactive) | 12.1 µM (inactive) | 29.5 µM (inactive) | 36.3 µM (inactive) | 24 µM (inactive) | 41 µM (inactive) | 24.7 µM (inactive) | 59.3 µM (inactive)
2 | CC(=O)NC1C(OCc2ccccc2)OC(CO)C(O)C1OCC(=O)NC(C)C(=O)NC(CCC(=O)NCCCCCNc1c2ccccc2nc2cccc([N+](=O)[O-])c12)C(N)=O (configuration not stated) | < 0.0001 µM (active) | < 0.0001 µM (active) | < 0.0001 µM (active) |  | 0.023 µM (active) | < 0.0001 µM (active) | < 0.0001 µM (active) | 0.000327 µM (active) | < 0.0001 µM (active) | < 0.01 µM (active) | < 0.0001 µM (active) |  | < 0.0001 µM (active) | 0.00169 µM (active) | < 0.0001 µM (active) | < 0.0001 µM (active) | < 0.0001 µM (active) | 0.00074 µM (active) | < 0.0001 µM (active) | < 0.0001 µM (active)
3 | NC(Cc1cccnn1)C(=O)O (configuration not stated) | > 100 µM (inactive) | > 100 µM (inactive) | > 100 µM (inactive) | > 100 µM (inactive) | > 100 µM (inactive) | > 100 µM (inactive) | > 100 µM (inactive) | > 100 µM (inactive) | > 100 µM (inactive) | > 100 µM (inactive) | > 100 µM (inactive) | > 100 µM (inactive) | > 100 µM (inactive) | > 100 µM (inactive) | > 100 µM (inactive) | > 100 µM (inactive) | > 100 µM (inactive) | > 100 µM (inactive) | > 100 µM (inactive) | > 100 µM (inactive)
4 | NC1(c2cc3ccccc3s2)CCCC1 | 51.6 µM (inactive) | 31 µM (inactive) | > 100 µM (inactive) | > 100 µM (inactive) | 34.1 µM (inactive) | 18.5 µM (inactive) | 90.6 µM (inactive) | 78.9 µM (inactive) | 48 µM (inactive) | 48.9 µM (inactive) | 86.5 µM (inactive) | 50.4 µM (inactive) | 25.5 µM (inactive) | 36.5 µM (inactive) | 24.1 µM (inactive) | 21.2 µM (inactive) | 57.8 µM (inactive) | 42.6 µM (inactive) | 18.4 µM (inactive) | 58.9 µM (inactive)
5 | O=C1C(Cl)C(c2cc3cc(Br)ccc3nc2Cl)N1c1c(Cl)cccc1Cl (configuration not stated) | 9.79 µM (inactive) | 16.5 µM (inactive) | > 25 µM (inactive) | > 25 µM (inactive) | > 25 µM (inactive) | 5.27 µM (inactive) | > 25 µM (inactive) | 12.3 µM (inactive) |  | 9.68 µM (inactive) | 15.9 µM (inactive) | 17.4 µM (inactive) | 22.1 µM (inactive) | 3.66 µM (inactive) | 12.5 µM (inactive) | 23.8 µM (inactive) | 6.76 µM (inactive) | 5.46 µM (inactive) | 4.9 µM (inactive) | > 25 µM (inactive)
6 | N#Cc1c(C#N)c(SSc2c(C#N)c(C#N)c(N)n2-c2ccc(F)cc2)n(-c2ccc(F)cc2)c1N | 2.96 µM (inactive) | 5.93 µM (inactive) | 21.6 µM (inactive) | 17.5 µM (inactive) | 3.9 µM (inactive) | 19.2 µM (inactive) | 18.9 µM (inactive) | 24.3 µM (inactive) | 20.2 µM (inactive) | 3.67 µM (inactive) | 3.66 µM (inactive) | 16.9 µM (inactive) | 4.8 µM (inactive) | 26.4 µM (inactive) | 17.4 µM (inactive) | 21.8 µM (inactive) | 2.9 µM (inactive) | 2.77 µM (inactive) | 0.619 µM (active) | 22.4 µM (inactive)
7 | CCOC(=O)c1c(SCc2ccccc2)nc2c3ccccc3ccn12 | 1.72 µM (inactive) | > 100 µM (inactive) |  | 52.7 µM (inactive) |  | 79.4 µM (inactive) | > 100 µM (inactive) | > 100 µM (inactive) | 57.7 µM (inactive) | > 100 µM (inactive) | 24 µM (inactive) | > 100 µM (inactive) | > 100 µM (inactive) | > 100 µM (inactive) | > 100 µM (inactive) | > 100 µM (inactive) | > 100 µM (inactive) | 56 µM (inactive) | > 100 µM (inactive) | > 100 µM (inactive)
8 | O=C(c1cccc(OCc2ccccc2)c1OCc1ccccc1)N1CCSC1=S | 18.1 µM (inactive) | 28.5 µM (inactive) | > 46.6 µM (inactive) | 30.1 µM (inactive) | 56.5 µM (inactive) | 33.3 µM (inactive) | 23.7 µM (inactive) | 10.6 µM (inactive) | 29.1 µM (inactive) | 27.9 µM (inactive) | 33.8 µM (inactive) | 19.2 µM (inactive) | 33.2 µM (inactive) | 34.2 µM (inactive) | 14 µM (inactive) | 28 µM (inactive) | 23 µM (inactive) | 56.5 µM (inactive) | 12.6 µM (inactive) | 34.6 µM (inactive)
9 | NC(=O)N/N=C1\CC2C3CC4C2C4C13 (configuration not stated) | > 100 µM (inactive) | > 100 µM (inactive) | > 100 µM (inactive) | > 100 µM (inactive) | > 100 µM (inactive) | > 100 µM (inactive) | > 100 µM (inactive) | > 100 µM (inactive) | > 100 µM (inactive) | > 100 µM (inactive) | > 100 µM (inactive) | > 100 µM (inactive) | > 100 µM (inactive) | > 100 µM (inactive) | > 100 µM (inactive) | > 100 µM (inactive) | > 100 µM (inactive) | 91 µM (inactive) | > 100 µM (inactive) | > 100 µM (inactive)
10 | O=S(=O)(O)CCSSCCS(=O)(=O)O | > 1000 µM (inactive) | > 1000 µM (inactive) | > 1000 µM (inactive) | > 1000 µM (inactive) | > 1000 µM (inactive) | > 1000 µM (inactive) | > 1000 µM (inactive) | > 1000 µM (inactive) | > 1000 µM (inactive) | > 1000 µM (inactive) | > 1000 µM (inactive) | > 1000 µM (inactive) | > 1000 µM (inactive) | > 1000 µM (inactive) |  | > 1000 µM (inactive) | > 1000 µM (inactive) | > 1000 µM (inactive) | > 1000 µM (inactive) | > 1000 µM (inactive)
11 | CC(=O)O[C@@H]1C(C2CCCCC2)C=[N+]([O-])O[C@@H]1OC1CCCC1(c1ccccc1)c1ccccc1 (some centres not stated) | 10.1 µM (inactive) | 14.9 µM (inactive) | 16.5 µM (inactive) | 15.7 µM (inactive) | 14.5 µM (inactive) | 3.94 µM (inactive) | 14.8 µM (inactive) | 10.2 µM (inactive) | 12.5 µM (inactive) | 4.28 µM (inactive) | 2.21 µM (inactive) | 5.81 µM (inactive) | 5.31 µM (inactive) | 1.94 µM (inactive) | 14.3 µM (inactive) | 8.57 µM (inactive) | 3.18 µM (inactive) | 7.98 µM (inactive) | 3.32 µM (inactive) | 9.91 µM (inactive)
12 | O=C1/C(=C/c2cccc([N+](=O)[O-])c2)CCCc2ccccc21 | 14.4 µM (inactive) | 16.6 µM (inactive) | 15.2 µM (inactive) | 29.4 µM (inactive) | 15.7 µM (inactive) | 15.3 µM (inactive) | 19.9 µM (inactive) | 9.51 µM (inactive) | 8.71 µM (inactive) | 9.33 µM (inactive) | 13.7 µM (inactive) | 10.1 µM (inactive) | 13.8 µM (inactive) | 3.4 µM (inactive) |  | 10.3 µM (inactive) | 3.92 µM (inactive) | 13.7 µM (inactive) | 4.95 µM (inactive) | 11 µM (inactive)
13 | Cc1ccc(S(=O)(=O)n2cc(-c3cc(C(F)(F)F)ccn3)c3cc(Br)ccc32)cc1 | 13.7 µM (inactive) | 27 µM (inactive) | 16 µM (inactive) | 15.5 µM (inactive) | 18.7 µM (inactive) | 17.1 µM (inactive) | 21.1 µM (inactive) | 34.2 µM (inactive) | 15.5 µM (inactive) | 45.2 µM (inactive) | 11.4 µM (inactive) | 16.1 µM (inactive) | 27.7 µM (inactive) | 28.1 µM (inactive) | 24.3 µM (inactive) | 16.4 µM (inactive) | 5.26 µM (inactive) | 12.3 µM (inactive) | > 100 µM (inactive) | 3.07 µM (inactive)
14 | O=S(=O)(N/C(=N\O)Nc1ccc(Cl)cc1)c1cc(S(=O)(=O)c2ccccc2)cs1 | 9.62 µM (inactive) | 15.9 µM (inactive) | 17.9 µM (inactive) |  | 19.2 µM (inactive) | 14.3 µM (inactive) | 24 µM (inactive) | 33.2 µM (inactive) | 13.7 µM (inactive) | 15.8 µM (inactive) | 16.1 µM (inactive) | 14.8 µM (inactive) | 15.1 µM (inactive) | 15.5 µM (inactive) | 9.08 µM (inactive) | 13.4 µM (inactive) | 17.3 µM (inactive) | 12.9 µM (inactive) | 6.87 µM (inactive) | 18.7 µM (inactive)
